Results on 4 molecules are retold here after patent publication US20220088016A1, “CANCER TREATMENT USING MULTI-TARGETED KINASE INHIBITOR IN COMBINATION OF PROTEIN KINASE BIOMARKERS” (ZHEJIANG CROWNMAB BIOTECH CO. LTD., priority 2019, published 2022).

Broadly, the IC50 is the concentration that inhibits the measured activity by half.

Like-named read-outs stand apart in the source and are kept apart here.

The test system of assay [1] is M-NFS-60 cells. The assay is described as follows: Proliferation of M-NFS-60 cells (CTG assay). The assay is classed as cell-based, mouse. The note with it: M-NFS-60 (CSF-1 dependent), 3 days. As to the method: (§1) Two syngeneic cell lines M-NFS-60 and RAW264.7 and engineered BaF3 hCSFIR cell line were starved and then tested with CBT-102 and other test articles for 3 days in the temperature of 37° C., 5% CO2 and 95% humidity. The cell viability was then detected using CTG assay. The software of GraphPad Prism was used to calculate IC50.
(§2) CSF-1 dependent mouse myeloid M-NFS-60 cells were employed as target cells while a CSF-1 independent cell line Raw 264.7 was used as a negative control. In addition to CBT-102, the study also included 3 CSF-1R inhibitors: GW2580, BLZ945 and Pexidartinib.

Assay [2] relates to RAW264.7 cells. As to the kind of experiment: Proliferation of RAW264.7 cells (CTG assay). The assay is classed as cell-based. The settings on record: RAW264.7 (CSF-1 independent, negative control), 3 days. On the procedure: as §1, §2
Assay [3] relates to BaF3 hCSF1R cell line. The assay is described as follows: Proliferation of engineered BaF3 hCSF1R cell line (CTG assay). It is filed as cell-based. As to the method:
as §1, §2

As to `CNC(=O)c1cc(Oc2ccc3nc(N[C@@H]4CCCC[C@H]4O)sc3c2)ccn1` [BLZ945], the figures for the Max inh. in assay [1] and in assay [2] were 99.08% and 24.65%, respectively. In addition, the IC50 in assay [1] (Mus musculus, 72 h) was 3020 nM; in assay [2] (Mus musculus, 72 h) it was over 30000 nM.

On to `COc1ccc(COc2ccc(Cc3cnc(N)nc3N)cc2OC)cc1` [GW2580], for which the IC50 in assay [1] is 1140 nM; in assay [2], 4060 nM; in assay [3] (engineered BaF3 hCSF1R, 3 days, CTG, read-out: IC50), 279 nM. Besides, the figures for the Max inh. in assay [1] and in assay [2] were 99.02% and 81.91%, respectively.

In the case of `FC(F)(F)c1ccc(CNc2ccc(Cc3c[nH]c4ncc(Cl)cc34)cn2)cn1` [PLX3397], the values for the Max inh. in assay [1] and in assay [2] were 99.32% and 95.16%, respectively. Besides, the IC50 came out at 348 nM in assay [1] (Mus musculus, 72 h) and 16400 nM in assay [2] (Mus musculus, 72 h).

In assay [3] (Mus musculus, BaF3, 72 h), `Cc1cc2cc(Oc3ccnc(Nc4cccc(CS(=O)(=O)NCCN(C)C)c4)n3)ccc2[nH]1` [sulfatinib] had an IC50 of 1330 nM.
